Test results reported in US20070237885A1, “PROCESS FOR THE ISOLATION OF LIMONOID GLUCOSIDES FROM CITRUS” (THE TEXAS A & M UNIVERSITY SYSTEM, priority 2006, published 2007).

How the values were obtained:
[1] = test system: MDA-MB-435 oestrogen receptor-negative human breast cancer cells; conditions: MDA-MB-435 cells; [3H] thymidine incorporation; cited from earlier work
[2] = test system: benzo[a]pyrene-induced forestomach neoplasia; conditions: mice; cited from earlier work
[3] = test system: 7,12-dimethylbenz[a]anthracene (DMBA)-induced buccal pouch epidermoid carcinomas; conditions: cited from earlier work; for incidence of DMBA-induced buccal pouch epidermoid carcinomas: female Syrian hamsters
[4] = test system: azoxymethane (AOM)-induced aberrant crypt foci (ACF); conditions: dietary intake; initiation and post-initiation feeding experiments; male F344 rats; cited from earlier work
[5] = test system: DMBA-induced buccal pouch tumours; conditions: hamsters; cited from earlier work
cancer cells = test: Inhibition of cancer cells in cell culture models; type: cell-based
Excerpt: (§1) Limon glucoside is a triterpene derivative, in which aglycone part is linked to a glucose moiety, and it is water-soluble. Citrus plants containing the above-named limonoid glucoside derivatives belong to the Rutaceae family, and include, for example, Citrus paradisi and Citrus aurantium. The fresh fruits of Citrus paradisi (Rio Red grapefruit) and Citrus aurantium (sour orange) are currently produced in large amounts as acidulants for preparing juice and pickles in various parts of the World, and thus are readily available sources for extraction of limonoid glucosides. A method or process for isolating limonoid glucosides in gram quantities was devised.

Anti-oxidant properties = test: Anti-oxidant properties
Excerpt: This offers potential advantages over the use of synthetic methods which require more complicated procedures to prepare pure limonoid compounds.

Water solubility = type: physicochemical
Excerpt: as §1

Molecule | IC50, inhibition of proliferation [1] | decrease of average tumour burden [5] | inhibition of cancer cells (cancer cells) | anti-oxidant properties (Anti-oxidant properties) | other results
CC(=O)O[C@H]1CC(=O)OC(C)(C)[C@@H]2CC(=O)[C@]3(C)[C@H](CC[C@@]4(C)[C@H](c5ccoc5)OC(=O)[C@H]5O[C@]543)[C@@]12C [nomilin] | 0.4 µg/mL |  |  |  | inhibition of benzo[a]pyrene-induced forestomach neoplasia [2]: inhibited; incidence of DMBA-induced buccal pouch epidermoid carcinomas [3]: reduced the incidence
CC1(C)OC(=O)C=C[C@]2(C)[C@H]3CC[C@@]4(C)[C@H](c5ccoc5)OC(=O)[C@H]5O[C@]54[C@]3(C)C(=O)C[C@@H]12 [obacunone] |  |  |  |  | formation of aberrant crypt foci (ACF) [4]: significantly inhibited
nomilinic acid 17-β-D-glucopyranoside [NAG] |  | only LG was effective |  |  | 
isoobacunoic-17-β-D-glucopyranoside [Compound (1)] |  |  | exhibited inhibition | exhibit anti-oxidant properties | 
CC1(C)O[C@H]2CC(=O)OC[C@]23[C@H]2CC[C@@](C)([C@@H](O[C@@H]4O[C@H](CO)[C@@H](O)[C@H](O)[C@H]4O)c4ccoc4)[C@@]4(O[C@@H]4C(=O)O)[C@]2(C)C(=O)C[C@@H]13 [Compound (2), limonin-17-β-D-glucopyanoside] | 75 µg/mL | effective | exhibited inhibition | exhibit anti-oxidant properties | water solubility (Water solubility): water-soluble
nomilin 17-β-D-glucopyranoside [NG] |  | only LG was effective |  |  | 
CC1(C)O[C@H]2CC(=O)OC[C@]23[C@H]2CC[C@@]4(C)[C@H](c5ccoc5)OC(=O)[C@H]5O[C@]54[C@]2(C)C(=O)C[C@@H]13 [limonin] | 12.5 µg/mL |  |  |  | incidence of DMBA-induced buccal pouch epidermoid carcinomas [3]: reduced the incidence; comparative inhibition of DMBA-induced neoplasia ([3]; limonin compared with nomilin): more effective inhibitor; formation of aberrant crypt foci (ACF) [4]: significantly inhibited
deacetyl nomilinic acid glucoside [Compound (3)] |  |  | exhibited inhibition | exhibit anti-oxidant properties | 
